From patent publication US9487483B2, “Complement pathway modulators and uses thereof” (priority 2012, dated 2016)

target: Recombinant human factor D (Homo sapiens (Human), UniProt P00746); assay: biochemical; format: biochemical; settings: Factor D inhibition data using Method 1; substrate Z-Lys-thiobenzyl, fluorescence readout; read-out: IC50
Sequence (P00746 26-253): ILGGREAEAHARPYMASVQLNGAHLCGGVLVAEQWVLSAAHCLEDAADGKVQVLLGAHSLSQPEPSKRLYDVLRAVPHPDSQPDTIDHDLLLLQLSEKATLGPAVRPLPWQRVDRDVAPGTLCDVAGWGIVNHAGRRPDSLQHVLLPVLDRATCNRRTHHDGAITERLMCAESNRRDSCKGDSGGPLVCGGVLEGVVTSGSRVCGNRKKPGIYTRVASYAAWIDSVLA
Protocol: Human Complement Factor D Assay: Method 1
Recombinant human factor D (expressed in E. coli and purified using standard methods) at 10 nM concentration is incubated with test compound at various concentrations for 1 hour at room temperature in 0.1 M Hepes buffer, pH 7.5, containing 1 mM MgCl2, 1 M NaCl and 0.05% CHAPS. […] IC50 values are calculated from percentage of inhibition of complement factor D-activity as a function of test compound concentration.

How did the IC50 turn out when `CC1(O)CCCC(NC(=O)[C@@H]2C[C@H]3C[C@H]3N2C(=O)Cn2nc(C(N)=O)c3ccccc32)C1` (stereo partly drawn) [Example 123, 1-(2-((1R,3S,5R)-3-(3-hydroxy-3-methylcyclohexylcarbamoyl)-2-azabicyclo[3.1.0]hexan-2-yl)-2-oxoethyl)-1H-indazole-3-carboxamide] was run?
The IC50 was 920 nM.

With `C[C@]1(CO)CCC[C@@H](NC(=O)[C@@H]2C[C@H]3C[C@H]3N2C(=O)Cn2nc(C(N)=O)c3ccccc32)C1` [Example 127, 1-(2-((1R,3S,5R)-3-(((1R,3S)-3-(hydroxymethyl)-3-methylcyclohexyl)carbamoyl)-2-azabicyclo[3.1.0]hexan-2-yl)-2-oxoethyl)-1H-indazole-3-carboxamide] as the compound, how does the IC50 read?
The IC50 was 80 nM.

`C[C@@]1(CO)CCC[C@H](NC(=O)[C@@H]2C[C@H]3C[C@H]3N2C(=O)Cn2nc(C(N)=O)c3ccccc32)C1` [Example 128, 1-(2-((1R,3S,5R)-3-(((1S,3R)-3-(hydroxymethyl)-3-methylcyclohexyl)carbamoyl)-2-azabicyclo[3.1.0]hexan-2-yl)-2-oxoethyl)-1H-indazole-3-carboxamide] was tested. Which IC50 did it give?
Its IC50 is 2210 nM.

same assay, conditions: read-out: IC50

For `CC(=O)c1nn(CC(=O)N2[C@H](C(=O)N[C@H]3CCCC(C)(C)C3)C[C@@]3(CO)C[C@@H]23)c2cnccc12` [Example 122, (1R,3S,5S)-2-[2-(3-Acetyl-pyrazolo[3,4-c]pyridin-1-yl)-acetyl]-5-hydroxymethyl-2-aza-bicyclo[3.1.0]hexane-3-carboxylic acid ((S)-3,3-dimethyl-cyclohexyl)-amide], which IC50 is on record?
Its IC50 is 2200 nM.

Which IC50 does the source give for `CC(=O)c1nn(CC(=O)N2[C@@H]3C[C@@H]3C[C@H]2C(=O)N[C@H]2C[C@H](O)CC(C)(C)C2)c2ccccc12` [Example 124, (1R,3S,5R)-2-(2-(3-acetyl-1H-indazol-1-yl)acetyl)-N-((1R,5R)-5-hydroxy-3,3-dimethylcyclohexyl)-2-azabicyclo[3.1.0]hexane-3-carboxamide] here?
The IC50 was 10 nM.

For `CC(=O)c1nn(CC(=O)N2[C@@H]3C[C@@H]3C[C@H]2C(=O)N[C@@H]2C[C@@H](O)CC(C)(C)C2)c2ccccc12` [Example 125, (1R,3S,5R)-2-(2-(3-acetyl-1H-indazol-1-yl)acetyl)-N-((1S,5S)-5-hydroxy-3,3-dimethylcyclohexyl)-2-azabicyclo[3.1.0]hexane-3-carboxamide], which IC50 is on record?
The IC50 was 1100 nM.
